# In US20150291565A1, “INDOLE COMPOUNDS AND THEIR USE AS ANTIMICROBIALS” (Memorial Sloan-Kettering Cancer Center, priority 2012, published 2015):
# Where “and” joins values, the source holds several entries; their conditions need not be identical. Identical values can stand only once. Like-named read-outs stand apart in the source and are kept apart here.
# Experiments:
# M. smegmatis (mc2155) = test: Disk diffusion assay, zone of inhibition, M. smegmatis; format: cell-based
# [1] = system: M. smegmatis (mc2155) Beta-Galactosidase (B-gal) reporter gene; test: HTS screen with Beta-Galactosidase reporter gene in M. smegmatis; format: cell-based; details: Mycolicibacterium smegmatis
# M. smegmatis Mc2155 = test: MIC against M. smegmatis Mc2155; format: cell-based; details: Mycolicibacterium smegmatis
# MRSA = test: MIC against MRSA; format: cell-based; details: Staphylococcus aureus
# [2] = system: S. aureus ATCC 29213 (MSSA); test: Broth dilution MIC, S. aureus ATCC 29213; format: cell-based; details: Staphylococcus aureus
# [3] = system: S. pneumoniae ATCC 6301 (PSSP); test: Broth dilution MIC, S. pneumoniae ATCC 6301; format: cell-based; details: Streptococcus pneumoniae
# [4] = system: E. faecalis ATCC 29212 (VRE); test: Broth dilution MIC, E. faecalis ATCC 29212; format: cell-based
# E. faecium CT-26 = test: Broth dilution MIC, E. faecium CT-26; format: cell-based; details: Enterococcus faecium
# E. coli ATCC 25922 = test: Broth dilution MIC, E. coli ATCC 25922; format: cell-based; details: Escherichia coli
# K. pneumoniae ATCC 13883 = test: Broth dilution MIC, K. pneumoniae ATCC 13883; format: cell-based; details: Klebsiella pneumoniae
# P. aeruginosa ATCC 9027 = test: Broth dilution MIC, P. aeruginosa ATCC 9027; format: cell-based; details: Pseudomonas aeruginosa
# C. albicans ATCC 14053 = test: Broth dilution MIC, C. albicans ATCC 14053; format: cell-based; details: Candida albicans, ATCC14053; Table 1; range 64 down to 0.12 μg/ml
# Method: In vitro Anti-bacterial & Anti-fungal Activity Assay: All test compounds were prepared as 6.4 mg/ml stock solutions in DMSO and further diluted according to the NCCLS M7-A6 (Page 5) document with sterile water or appropriate diluent. A working stock of 256 μg/ml was used to do 1:2 serial dilutions in 96-well plates. […] The inoculums were prepared by making a direct sterile water suspension of isolated colonies from 18 to 24 hr agar plates for all organisms (Mueller Hinton, Blood Agar or SDA plates). Each bacterial suspension was adjusted to read between 0.09 and 0.11 absorbance at 620 nm. […] These were further diluted 1/100 in appropriate broth for inoculating the 96-well plates. The C. albicans suspension was adjusted to read between 70 and 75% Transmittance at 530 nm and then diluted 1/500 in RPMI+MOPS broth. All aerobic bacterial and fungal plates were incubated for 18 hrs. at 35° C. […] Plates were read using a Beckman Automated Plate Reader at 650 nm. Readings were confirmed by visual examination of plates. (See Table 1, Table 2, Table 3, and Table 4). […] It is important to note that positive results against C. albicans are often indicative of broad spectrum antifungal activity, while negative results are not necessarily conclusory of a lack of activity against other fungus.
# [5] = system: S. aureus (MRSA) (ATCC33591); test: Septicemia survival model in neutropenic CD1 mice, MRSA; format: in vivo
# E. coli (ATCC 25922) = test: Septicemia survival model in neutropenic CD1 mice, E. coli; format: in vivo
# Mycobacterium smegmatis = test: Time kill curve, liquid culture, M. smegmatis; format: cell-based; details: 1.9 micromolar; vs DMSO control; FIG. 1 right-hand graph
# [6] = system: methicillin-resistant S. aureus (ATCC 33591); test: Thigh infection model in neutropenic CD1 mice, MRSA; details: 24 hours; for Log reduction: vs vehicle
compound,measurement,setting,value
c1cc(C2=NCCN2)ccc1Nc1ccc(-c2cc3ccc(C4=NCCN4)cc3[nH]2)cc1 [SKI-1],Zone Size M. smegmatis,M. smegmatis (mc2155); disk diffusion zone of inhibition,19.6 mm
same,Average Zone Size MC2155 (n = 3),M. smegmatis (mc2155); n = 3,12.3
same,IC50,"[1]; suffix 250 not explained, read-out: IC50_250",790 nM
same,IC50,"[1]; suffix 251 not explained, read-out: IC50_251",730 nM
same,IC50,"[1]; suffix 381 not explained, read-out: IC50_381",2540 nM
same,IC50,"[1]; suffix 569 not explained, read-out: IC50_569",3670 nM
same,MIC,M. smegmatis Mc2155,0.2 µM
same,MIC,MRSA,9.2 µM
same,MIC,"[2]; Table 3, starting at 4 μg/ml, read-out: MIC S. aureus ATCC 29213",0.25 µg/mL
same,MIC,"[2]; Table 1, range 64 down to 0.12 μg/ml, read-out: MIC S. aureus ATCC 29213",0.25 µg/mL
same,MIC,"[2]; Table 2, broth dilution MIC in ug/ml, read-out: MIC S aureus ATCC 29213 MSSA",0.25 µg/mL
same,MIC,"[2]; Table 4, broth dilution MIC according to CLSI standards (NAEJA), read-out: MIC MSSA S. aureus ATCC 29213",0.25 µg/mL
same,MIC,"[3]; ATCC6301, Table 1, range 64 down to 0.12 μg/ml, read-out: MIC S. pneumoniae ATCC 6301",≤ 0.12 µg/mL
same,MIC,"[3]; ATCC6301, Table 2, broth dilution MIC in ug/ml, read-out: MIC S pneumonia ATCC 6301 PSSP",0.12 µg/mL
same,MIC,"[3]; ATCC6301, Table 3, starting at 4 μg/ml, read-out: MIC S. pneumoniae ATCC 6301",0.12 µg/mL
same,MIC,"[3]; ATCC6301, Table 4, broth dilution MIC according to CLSI standards (NAEJA), read-out: MIC PSSP S. pneumoniae ATCC 6301",0.12 µg/mL
same,MIC,"[4]; Enterococcus faecalis, Table 1, range 64 down to 0.12 μg/ml, read-out: MIC E. faecalis ATCC 29212",0.25 µg/mL
same,MIC,"[4]; Enterococcus faecalis, Table 4, broth dilution MIC according to CLSI standards (NAEJA), read-out: MIC VRE E. faecalis ATCC 29212",0.12 µg/mL
same,MIC,"[4]; Table 2, broth dilution MIC in ug/ml, read-out: MIC E faecalis ATCC 29212 VRE",0.25 µg/mL
same,MIC E. faecalis ATCC 29212,"[4]; Table 3, starting at 4 μg/ml",0.25 µg/mL
same,MIC,"E. faecium CT-26; CT26, Table 1, range 64 down to 0.12 μg/ml, read-out: MIC E. faecium CT-26",≤ 0.12 µg/mL
same,MIC,"E. faecium CT-26; CT26, Table 2, broth dilution MIC in ug/ml, read-out: MIC E faecium CT-25",0.06 µg/mL
same,MIC,"E. faecium CT-26; CT26, Table 3, starting at 4 μg/ml, read-out: MIC E. faecium CT-26",0.06 µg/mL
same,MIC,"E. faecium CT-26; CT26, Table 4, broth dilution MIC according to CLSI standards (NAEJA), read-out: MIC E. faecium CT-26",0.015 µg/mL
same,MIC,"E. coli ATCC 25922; ATCC 25921 / ATCC 25922, Table 2, broth dilution MIC in ug/ml, read-out: MIC E. coli ATCC 25921",1 µg/mL
same,MIC,"E. coli ATCC 25922; ATCC25922, Table 1, range 64 down to 0.12 μg/ml, read-out: MIC E. coli ATCC 25922",1 µg/mL
same,MIC,"E. coli ATCC 25922; ATCC25922, Table 4, broth dilution MIC according to CLSI standards (NAEJA), read-out: MIC E. coli ATCC 25922",0.5 µg/mL
same,MIC,"K. pneumoniae ATCC 13883; ATCC13883, Table 1, range 64 down to 0.12 μg/ml, read-out: MIC K. pneumoniae ATCC 13883",1 µg/mL
same,MIC,"K. pneumoniae ATCC 13883; ATCC13883, Table 2, broth dilution MIC in ug/ml, read-out: MIC K pneumonia ATCC 13883",1 µg/mL
same,MIC,"K. pneumoniae ATCC 13883; ATCC13883, Table 4, broth dilution MIC according to CLSI standards (NAEJA), read-out: MIC K. pneumoniae ATCC 13883",0.5 µg/mL
same,MIC,"P. aeruginosa ATCC 9027; ATCC 9026 / ATCC 9027, Table 2, broth dilution MIC in ug/ml, read-out: MIC P aeruginosa ATCC 9026",1 µg/mL
same,MIC,"P. aeruginosa ATCC 9027; ATCC9027, Table 1, range 64 down to 0.12 μg/ml, read-out: MIC P. aeruginosa ATCC 9027",1 µg/mL
same,MIC,"P. aeruginosa ATCC 9027; ATCC9027, Table 4, broth dilution MIC according to CLSI standards (NAEJA), read-out: MIC P. aeruginosa ATCC 9027",0.5 µg/mL
same,MIC,C. albicans ATCC 14053,1 µg/mL
same,Day by which all the mice died,[5]; 10 mg/kg,≤ 3 days
same,Percent Survival Day 1,[5]; 10 mg/kg BID IP,100%
same,Percent Survival Day 2,[5]; 10 mg/kg BID IP,100%
same,Percent Survival Day 3,[5]; 10 mg/kg BID IP,0%
same,Percent Survival Day 4,[5]; 10 mg/kg BID IP,0%
same,Percent Survival Day 5,[5]; 10 mg/kg BID IP,0%
same,Percent Survival Day 6,[5]; 10 mg/kg BID IP,0%
same,Percent Survival Day 7,[5]; 10 mg/kg BID IP,0%
same,Day by which all the mice died,[5]; 20 mg/kg,≤ 4 days
same,Percent Survival Day 1,[5]; 20 mg/kg BID IP,100%
same,Percent Survival Day 2,[5]; 20 mg/kg BID IP,100%
same,Percent Survival Day 3,[5]; 20 mg/kg BID IP,80%
same,Percent Survival Day 4,[5]; 20 mg/kg BID IP,0%
same,Percent Survival Day 5,[5]; 20 mg/kg BID IP,0%
same,Percent Survival Day 6,[5]; 20 mg/kg BID IP,0%
same,Percent Survival Day 7,[5]; 20 mg/kg BID IP,0%
same,Day by which all the mice died,E. coli (ATCC 25922); 10 mg/kg,≤ 3 days
same,Percent Survival Day 1,E. coli (ATCC 25922); 10 mg/kg BID IP,100%
same,Percent Survival Day 2,E. coli (ATCC 25922); 10 mg/kg BID IP,60%
same,Percent Survival Day 3,E. coli (ATCC 25922); 10 mg/kg BID IP,0%
same,Percent Survival Day 4,E. coli (ATCC 25922); 10 mg/kg BID IP,0%
same,Percent Survival Day 5,E. coli (ATCC 25922); 10 mg/kg BID IP,0%
same,Percent Survival Day 6,E. coli (ATCC 25922); 10 mg/kg BID IP,0%
same,Percent Survival Day 7,E. coli (ATCC 25922); 10 mg/kg BID IP,0%
same,Day by which all the mice died,E. coli (ATCC 25922); 20 mg/kg,≤ 4 days
same,Percent Survival Day 1,E. coli (ATCC 25922); 20 mg/kg BID IP,100%
same,Percent Survival Day 2,E. coli (ATCC 25922); 20 mg/kg BID IP,80%
same,Percent Survival Day 3,E. coli (ATCC 25922); 20 mg/kg BID IP,60%
same,Percent Survival Day 4,E. coli (ATCC 25922); 20 mg/kg BID IP,0%
same,Percent Survival Day 5,E. coli (ATCC 25922); 20 mg/kg BID IP,0%
same,Percent Survival Day 6,E. coli (ATCC 25922); 20 mg/kg BID IP,0%
same,Percent Survival Day 7,E. coli (ATCC 25922); 20 mg/kg BID IP,0%
same,Viable bacterial titer over time (time kill curve),Mycobacterium smegmatis,bactericidal
same,Mean bacterial tissue burden (log10/thigh),[6]; 10 mg/kg BID IP,8.3106 log10/thigh
same,Log reduction,"[6]; 10 mg/kg BID IP, listed as 356313, 10 mg/kg",0.14 Log and 0.1382 Log
same,Mean bacterial tissue burden (log10/thigh),[6]; 20 mg/kg BID IP,7.7428 log10/thigh
same,Log reduction,"[6]; 20 mg/kg BID IP, listed as 356313, 20 mg/kg",0.71 Log and 0.7060 Log
